Results reported in US20220390432A1, “METHODS OF CHARACTERIZING AND UTILIZING AGENT-CONDENSATE INTERACTIONS” (Whitehead Institute for Biomedical Research, priority 2019, published 2022).

Columns and labels:
[1] = system: DNA in MED1 or HP1α droplets; assay: Cisplatin-DNA engagement assay; type: biochemical; details: size-shift on a bioanalyzer; cisplatin 0-2 mM
Experimental: MED1-IDR-BFP and HP1a-BFP droplets were formed by mixing 10 μM protein with the droplet formation buffer containing 50 mM Tris-HCl pH 7.5, 100 mM NaCl, 10% PEG 8000, 10% glycerol, 1 mM DTT and 5 ng/ul DNA in a 10 μl reaction volume. The droplet reactions were incubated for 30 min at RT. Next, increasing concentrations of activated Cisplatin (0, 0.5, 0.75, 1, 1.5, and 2 mM) were added to the droplet reactions and incubated for another 30 min at RT. The reactions are then treated with 1 μl of Proteinase K (Invitrogen, 20 mg/ml) for 4 hr at 55° C. Platination of DNA was visualized by size-shift on a bioanalyzer.

[2] = Droplet formation assay of small molecule alone without any protein; type: physicochemical; details: without any protein added
Experimental: Recombinant BFP, GFP, or mCherry fusion proteins were concentrated and desalted to an appropriate protein concentration and 125 mM NaCl using Amicon Ultra centrifugal filters (30K MWCO, Millipore). […] […] The protein solution was immediately loaded onto glass bottom 384 well plate (Cellvis P384-1.5H-N) and imaged with an Andor confocal microscope with a 150× objective. Unless indicated, images presented are of droplets settled on the glass coverslip.

HP1α = biological target: T1, HP1α (Homo sapiens, UniProt P45973); assay: In vitro droplet assay, small molecule partitioning into HP1α condensates; type: binding
T1 construct: HP1α—full length, amino acids 1-191; 6xHis (N); made in house; host or cells: LOBSTR cells (E. coli)
Experimental: Recombinant BFP, GFP, or mCherry fusion proteins were concentrated and desalted to an appropriate protein concentration and 125 mM NaCl using Amicon Ultra centrifugal filters (30K MWCO, Millipore). Recombinant protein was added too. […] The protein solution was immediately loaded onto glass bottom 384 well plate (Cellvis P384-1.5H-N) and imaged with an Andor confocal microscope with a 150× objective. Unless indicated, images presented are of droplets settled on the glass coverslip.
Drug and small molecule concentrations used in the droplet experiments are as follows:
To analyze in vitro droplet experiments, custom Python scripts using the scikit-image package were written to identify droplets and characterize their size, shape and intensity. […] After segmentation, mean intensity for each droplet was calculated while excluding pixels near the phase interface, and background-corrected by subtracting intensity of dark images of droplet formation buffer only. Droplets identified in the channel of the fluorescent protein from ten independent fields of view were quantified for each experiment. The maximum intensity of signal within the droplets was calculated for each channel, the maximum intensity in the drug channel was termed “maximum drug intensity”. […]

T1 sequence (P45973 whole entry, the tested form may be a part): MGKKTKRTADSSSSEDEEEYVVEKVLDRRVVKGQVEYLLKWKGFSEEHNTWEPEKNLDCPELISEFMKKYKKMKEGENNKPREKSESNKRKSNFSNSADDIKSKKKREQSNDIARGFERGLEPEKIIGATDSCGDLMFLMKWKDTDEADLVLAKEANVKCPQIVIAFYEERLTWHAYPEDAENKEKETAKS

SMILES: N.N.[Cl][Pt][Cl] [cisplatin]
- DNA platination in MED1 versus HP1α condensates [1]: more efficiently platinated in MED1 condensates than in HP1α condensates
- droplet formation of small molecule alone [2]: diffuse fluorescent signal
- partitioning / incorporation into HP1α droplets (HP1α): freely diffuses
